Experimental data published in patent US20250256005A1, “FLOWABLE PASTE WITH ELLAGIC ACID-NICKEL COMPLEX AND USES THEREOF FOR ACTIVATING COAGULATION” (Ethicon, Inc., priority 2024, published 2025).

Tested on: citrated whole blood (intrinsic pathway of coagulation)
Assay: Whole Blood (WB) gelation test
Assay type: biochemical
Details: ellagic acid without Nickel or any other metal
Text: The aim was to assess how quickly the activators clot fresh whole blood.
These clotting time assays evaluate the ability of a material to active the intrinsic pathway to form a fibrin clot in whole blood after recalcification of citrated blood. Fresh citrated blood is used to preserve clotting factors.
WB Gelation Test: The WB gelation test uses a larger volume of blood compared to a small volume ACT tube to accommodate biomaterials, e.g., gelatins, collagen, thus allowing the WB gelation test to assess interactions between activators and biomaterials. […] To address this limitation, the WB Gelation Test was developed with a heated enclosure and larger tubes to accommodate larger volumes of blood and greater amounts of activators. Setup includes a plexiglass enclosure with a heating unit to perform the testing at 37° C. A temperature sensor in the enclosure maintained the temperature at 37° C. ±1° C. The enclosure contains an orbital rotator to gently mix the blood to with the other materials being tested while keeping it warm. The calcium saline and tube rocker are also in the enclosure. The enclosure has a front hinge to allow access from the front of the unit.
In exemplary procedures, citrated whole blood (4 ml) was added to a 15 ml conical tube with activator/biomaterial and mixed, then calcium saline solution (2 ml) was added to the tube and the timer is started. […]

## O=c1oc2c(O)c(O)cc3c(=O)oc4c(O)c(O)cc1c4c23 [Ellagic acid, ellagic acid]
  time over which no clotting was observed: over 1200 minutes
